From ChEMBL document CHEMBL1201862, “PubChem BioAssay data set” (2004)
Values joined by “and” are separate entries in the source; they are usually repeats but may differ in a detail not shown here. Equal values may be shown once. Active and inactive are the calls of the source.

What was measured:
[1] = target: T1, Apoptotic protease-activating factor 1 (Homo sapiens, UniProt O14727); type: functional
T1 sequence (O14727 whole entry): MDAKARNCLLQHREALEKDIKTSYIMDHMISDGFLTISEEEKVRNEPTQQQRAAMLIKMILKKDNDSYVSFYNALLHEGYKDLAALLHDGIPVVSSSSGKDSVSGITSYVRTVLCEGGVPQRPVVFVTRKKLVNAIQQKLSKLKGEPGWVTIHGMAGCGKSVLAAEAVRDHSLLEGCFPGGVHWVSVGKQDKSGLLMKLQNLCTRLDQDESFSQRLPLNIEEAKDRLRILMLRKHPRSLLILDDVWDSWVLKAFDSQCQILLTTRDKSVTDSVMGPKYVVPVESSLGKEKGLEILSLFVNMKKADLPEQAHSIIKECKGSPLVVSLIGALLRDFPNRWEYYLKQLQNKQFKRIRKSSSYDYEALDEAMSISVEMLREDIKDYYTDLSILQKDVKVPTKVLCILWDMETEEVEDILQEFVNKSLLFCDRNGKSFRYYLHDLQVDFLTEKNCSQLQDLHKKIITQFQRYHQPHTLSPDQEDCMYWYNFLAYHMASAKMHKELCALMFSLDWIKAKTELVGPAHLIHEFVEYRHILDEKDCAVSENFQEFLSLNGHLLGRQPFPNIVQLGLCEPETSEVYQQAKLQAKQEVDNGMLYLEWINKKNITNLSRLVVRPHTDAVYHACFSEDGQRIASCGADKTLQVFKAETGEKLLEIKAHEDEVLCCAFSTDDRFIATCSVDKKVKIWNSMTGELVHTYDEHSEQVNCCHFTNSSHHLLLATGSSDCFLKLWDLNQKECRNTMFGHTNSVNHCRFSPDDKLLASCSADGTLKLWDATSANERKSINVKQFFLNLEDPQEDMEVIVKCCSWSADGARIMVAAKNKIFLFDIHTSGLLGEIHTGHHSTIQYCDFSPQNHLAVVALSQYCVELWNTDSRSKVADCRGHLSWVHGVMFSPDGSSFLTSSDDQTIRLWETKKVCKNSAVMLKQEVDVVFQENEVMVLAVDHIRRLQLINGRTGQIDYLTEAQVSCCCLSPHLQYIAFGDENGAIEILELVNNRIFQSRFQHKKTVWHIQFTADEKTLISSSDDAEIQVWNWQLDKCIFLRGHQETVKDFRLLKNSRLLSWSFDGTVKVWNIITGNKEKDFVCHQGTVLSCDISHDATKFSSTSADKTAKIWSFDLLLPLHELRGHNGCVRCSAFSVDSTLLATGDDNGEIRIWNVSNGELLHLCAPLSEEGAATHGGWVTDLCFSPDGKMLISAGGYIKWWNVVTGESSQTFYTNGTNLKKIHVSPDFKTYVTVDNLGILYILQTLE

[2] = target: T2, Replicative DNA helicase DnaB (Mycobacterium tuberculosis, UniProt P9WMR3); experiment: DnaB intein splicing inhibitors, dose response, biochemical, cell-free fluorescence (AID 449749); type: functional
T2 sequence (P9WMR3 whole entry): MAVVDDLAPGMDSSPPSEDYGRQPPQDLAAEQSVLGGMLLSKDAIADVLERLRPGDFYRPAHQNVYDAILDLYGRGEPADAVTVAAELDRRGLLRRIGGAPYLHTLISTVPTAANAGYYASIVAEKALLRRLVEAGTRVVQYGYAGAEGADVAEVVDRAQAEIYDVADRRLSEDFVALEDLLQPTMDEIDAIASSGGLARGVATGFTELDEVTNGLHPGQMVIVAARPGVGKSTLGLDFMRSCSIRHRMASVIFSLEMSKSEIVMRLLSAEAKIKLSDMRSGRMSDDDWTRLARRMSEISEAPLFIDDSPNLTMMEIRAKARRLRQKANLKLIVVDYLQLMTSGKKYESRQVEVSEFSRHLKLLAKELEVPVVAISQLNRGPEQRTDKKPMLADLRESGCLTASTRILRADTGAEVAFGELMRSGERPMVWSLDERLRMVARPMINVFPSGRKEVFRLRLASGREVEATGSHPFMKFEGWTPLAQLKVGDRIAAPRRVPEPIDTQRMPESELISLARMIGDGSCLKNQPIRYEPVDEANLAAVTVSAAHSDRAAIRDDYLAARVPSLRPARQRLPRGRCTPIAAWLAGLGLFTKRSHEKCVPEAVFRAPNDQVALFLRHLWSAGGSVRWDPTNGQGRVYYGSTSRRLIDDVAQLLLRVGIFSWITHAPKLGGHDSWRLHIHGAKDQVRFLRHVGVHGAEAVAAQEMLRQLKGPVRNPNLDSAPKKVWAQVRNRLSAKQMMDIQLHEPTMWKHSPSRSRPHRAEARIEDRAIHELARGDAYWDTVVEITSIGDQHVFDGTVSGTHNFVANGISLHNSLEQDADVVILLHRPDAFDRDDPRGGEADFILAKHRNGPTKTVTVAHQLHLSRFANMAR

[3] = target: Heat shock protein HSP 90-alpha (Homo sapiens, UniProt P07900); type: functional, organism-based
[4] = target: T3, Protein RecA (Mycobacterium tuberculosis, UniProt P9WHJ3); experiment: Fluorescence Cell-Free Homogeneous Dose Retest to Identify Inhibitors of RecA-Intein Splicing Activity. [Related pubchem assays (depositor defined):AID2097, AID2223, AID489010, AID492950]; type: functional
T3 sequence (P9WHJ3 whole entry): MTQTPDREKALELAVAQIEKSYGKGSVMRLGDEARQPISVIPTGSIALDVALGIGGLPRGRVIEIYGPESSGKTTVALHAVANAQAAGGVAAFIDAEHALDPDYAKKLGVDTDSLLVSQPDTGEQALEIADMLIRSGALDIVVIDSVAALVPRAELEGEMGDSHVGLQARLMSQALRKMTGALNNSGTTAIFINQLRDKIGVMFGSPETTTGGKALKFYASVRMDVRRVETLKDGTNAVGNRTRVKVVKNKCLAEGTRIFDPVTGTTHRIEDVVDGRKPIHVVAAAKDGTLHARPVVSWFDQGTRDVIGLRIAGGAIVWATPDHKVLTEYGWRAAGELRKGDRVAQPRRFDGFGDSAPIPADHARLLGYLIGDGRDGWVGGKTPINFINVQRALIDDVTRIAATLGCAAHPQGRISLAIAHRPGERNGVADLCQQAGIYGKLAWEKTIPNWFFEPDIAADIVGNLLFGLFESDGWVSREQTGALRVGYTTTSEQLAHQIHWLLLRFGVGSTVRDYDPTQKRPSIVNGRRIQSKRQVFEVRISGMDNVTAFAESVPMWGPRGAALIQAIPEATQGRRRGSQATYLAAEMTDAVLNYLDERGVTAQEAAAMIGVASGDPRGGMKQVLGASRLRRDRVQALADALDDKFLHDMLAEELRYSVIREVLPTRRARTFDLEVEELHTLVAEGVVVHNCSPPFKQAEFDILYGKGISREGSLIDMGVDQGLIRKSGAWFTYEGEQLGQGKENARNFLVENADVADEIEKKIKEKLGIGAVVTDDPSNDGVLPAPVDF

[5] = NIH-3T3 fibroblast cytotoxicity, dose response, cytotoxicity control, cell-based, fluorescence, Alamar Blue, secondary assay (AID 2327); type: functional;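 note: NIH-3T3 mouse fibroblasts cultured with fluconazole at 8 µg/mL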

CCCCCCCCCCCCCCCCn1cc[n+](C)c1
active: IC50 [1] 22.2 µM and 21.1 µM | AC50 [2] 3.37 µM and 3.76 µM | AC50 [3] 3.48 µM | EC50 [4] 9.84 µM and 8.55 µM | EC50 [5] 149 µM

O=C(Nc1ccccc1Cl)/C(Cl)=C(\Cl)[S+]([O-])c1ccccc1 (stereo unspecified)
active: AC50 [2] 2.7 µM | AC50 [3] < 0.195 µM | EC50 [4] 0.935 µM | EC50 [5] 3.5 µM

Cc1cc(C)nc(/N=c2/ssnc2Cl)c1
active: IC50 [1] 2.9 µM

Cc1ccc(C)c(S(=O)(=O)/N=C2\C=C(NS(=O)(=O)c3ccccc3)C(=O)c3ccccc32)c1
active: IC50 [1] 12 µM | AC50 [2] 2.17 µM | EC50 [4] 2.25 µM

O=C(NC1(O)C(=O)c2ccccc2C1=O)c1ccccc1
active: IC50 [1] 3.22 µM | AC50 [2] 7.72 µM | EC50 [4] 16.4 µM
